Experimental data: ChEMBL document CHEMBL5230122, “Natural products and other inhibitors of F1FO ATP synthase” (Eur J Med Chem, 2020)

How the values were obtained:
PC-12 [1] = test: Cytoprotective activity against glutamate induced-toxicity in rat PC-12 cells assessed as reduction in cell death for 24 hrs by MTT assay; type: functional, cell-based; settings: PC-12, 24 h
Rattus norvegicus = species: Rattus norvegicus; test: Inhibition of rat liver mitochondrial F0F1-ATP synthase hydrolytic activity at 5 uM in presence of MgATP; settings: Mitochondria
PC-12 [2] = test: Cytoprotective activity against KCN induced-toxicity in rat PC-12 cells assessed as reduction in cell death for 24 hrs by MTT assay; type: functional, cell-based; settings: PC-12, 24 h
Cortical neurone = test: Neuroprotective activity against rat Primary cortical neuron cells assessed as rescue of cell death incubated for 2 days by fluorescent live-dead assay; type: functional, cell-based; settings: 48 h
[3] = Binding affinity to mitochondrial ATP5A in mouse HT-22 cells measured after 15 mins by LC/MS/MS based pull-down assay; type: cell-based
[4] = Neuroprotective activity against amyloid beta induced cell death in rat Primary hippocampal neuron cells assessed as increase in cell viability incubated for 2 days by lactate dehydrogenase release assay; type: functional, cell-based; settings: Hippocampal neurone, 48 h
[5] = Inhibition of bovine heart mitochondrial F0F1-ATP synthase for 1 hr by microplate reader analysis; type: mitochondria, Bos taurus, Mitochondria
HepG2 = test: Cytotoxicity against human HepG2 cells assessed as reduction in glucose induced mitochondrial toxicity by measuring ATP depletion incubated for 24 hrs by CellTiter-Glo luminescent cell viability assay; type: functional, cell-based; settings: HepG2, 24 h
A549 = test: Antiproliferative activity against human A549 cells assessed as reduction in cell proliferation incubated for 48 hrs by xCELLigence RTCA system analysis; type: functional, cell-based; settings: A549, 48 h
CL1-0 = test: Antiproliferative activity against human CL1-0 cells assessed as reduction in cell proliferation incubated for 48 hrs by xCELLigence RTCA system analysis; type: functional, cell-based; settings: CL1-0, 48 h
[6] = Inhibition of bovine heart mitochondria ATP synthase in presence of PEP, PK, LDH and NADH for 1 hrs by MitoTox microplate assay; set-up: species or system Bos taurus
CAKI-1 = test: Antiproliferative activity against human CAKI-1 cells assessed as reduction in cell proliferation incubated for 96 hrs by Cell TiterGlo assay; type: functional, cell-based; settings: CAKI-1, 96 h
T47D = test: Antiproliferative activity against human T47D assessed as inhibition of cell viability incubated for 72 hrs by CCK-8 assay; type: functional, cell-based
MCF7 = test: Antiproliferative activity against human MCF7 assessed as inhibition of cell viability incubated for 72 hrs by CCK-8 assay; type: functional, cell-based; settings: MCF7, 72 h
[7] = Inhibition of thrombin-induced hyperpermeability of human HMEC-1 cells at 10 uM preincubated for 20 mins followed by thrombin addition and measured for 60 mins by transwell assay; type: functional; settings: HMEC-1, 1.333 h, time 80 min
[8] = Inhibition of bovine heart mitochondrial F0F1-ATP synthase assessed as reduction in NADH oxidation for 40 mins by MitoTox Complex V OXPHOS activity microplate assay; type: mitochondria, Bos taurus, Mitochondria
[9] = Non-competitive inhibition of bovine heart mitochondrial F0F1-ATP synthase incubated for 25 mins by ATPase assay; type: mitochondria, Bos taurus, Mitochondria

CCOC(=O)C1=C(C)NC2=C(C=Nc3ccccc3N2)[C@@H]1c1ccccc1[N+](=O)[O-]
IC50 (PC-12 [1]): 29 nM | inhibition (Rattus norvegicus): 67% | IC50 (PC-12 [2]): 8 nM

COc1cccc(/C=N/N(C(=O)C(F)(F)F)c2ccc(C)cc2C)c1 [J147]
EC50 (Cortical neurone): 25 nM | EC50 [3]: 20 nM | EC50 [4]: 200 nM

Cc1oncc1C(=O)Nc1ccc(C(F)(F)F)cc1 [LEFLUNOMIDE]
IC50 [5]: 35000 nM | IC50 (HepG2): 110000 nM

COc1cc(=O)oc(/C=C/C=C/C=C/C(C)=C/[C@]2(C)O[C@H](C)[C@](C)(O)[C@H]2O)c1C
IC50 (A549): 1500 nM | IC50 (CL1-0): 1500 nM

CNC(=O)c1cc(Oc2ccc(NC(=O)Nc3ccc(Cl)c(C(F)(F)F)c3)cc2)ccn1 [SORAFENIB]
IC50 [6]: 2500 nM

Nc1ncnc2c1nc(Cl)n2[C@@H]1O[C@H](CO)[C@@H](O)[C@H]1O [8-CHLOROADENOSINE]
IC50 (CAKI-1): 2000 nM

CCC(C)N(C)C(=O)c1cc2ccccc2c(-c2ccccc2Cl)n1 (configuration not stated) [PK-11195]
IC50 (T47D): 6 nM | IC50 (MCF7): 5.4 nM

C=C1CC[C@@]2(OC1)O[C@H]1C[C@H]3[C@@H]4CC=C5C[C@H](O)C[C@H](O[C@@H]6OC[C@H](O)[C@H](O)[C@H]6O[C@@H]6O[C@@H](C)[C@H](O)[C@@H](O)[C@H]6O)[C@]5(C)[C@H]4CC[C@]3(C)[C@H]1[C@@H]2C
inhibition at 10 µM [7]: 41.9% | Ki [8]: 10000 nM

NCCc1ccc(Oc2ccc(O)cc2)c(I)c1
IC50 [9]: 27500 nM
